Assay results from US11415579B2, “Assay for measuring a rate of reaction between a target and a ligand candidate” (Imperial College Innovations Ltd., priority 2016, dated 2022).
Where “and” joins values, the source holds several entries; their conditions need not be identical. Identical values can stand only once.

Assays:
Cdk2(H71C) (C177A) = molecular target: T1, Cdk2(H71C) (C177A) (Homo sapiens, UniProt P24941, C177A/H71C); experiment: Kinetic thiol consumption assay with Cdk2 mutant H71C; type: binding; parameters: key to Rate enhancement, Cdk2 H71C: rate constant with Cdk2 ÷ rate constant with model thiol (fold); conditions: for Rate enhancement, Cdk2 H71C / Rate constant with Cdk2 H71C: additional mutation C177A; for Rate constant with Cdk2 H71C: Protein: Cdk2, cysteine position H71C, in h^-1
T1 construct: poly-histidine; made in house; host or cells: E. coli
Method in brief: (§1)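 5 μM thiol, degassed phosphate pH 8, 2% v/v immobilized TCEP beads; 1 h RT; fluorescence ex 380/em 470 nm; normalized vs DMSO/thiol-only; first-order exponential decay fit → rate constant; Cdk2 k / model-thiol k = rate enhancement per acrylamide.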

[1] = molecular target: T2, human cyclin-dependent kinase 2 (Cdk2) (Homo sapiens, UniProt P24941); experiment: Kinetic thiol consumption assay with wild type Cdk2 (C177); type: binding; parameters: key to Rate enhancement, Cdk2 WT: k(Cdk2) divided by k(model thiol); Rate constant with Cdk2 (k(Cdk2)): unit not given here; conditions: for Rate constant with Cdk2 (k(Cdk2)): 500 μM ligand, 5 μM thiol, phosphate buffer pH 8; for Rate enhancement, Cdk2 WT: no additional mutations; for Rate constant with Cdk2 WT: Protein: Cdk2, cysteine position WT, in h^-1; for k(Cdk2)/k(Cdk2_mut) rate enhancement: model thiol Cdk2[C177A, F80C, K278C]; for k(Cdk2)/k(GSH) rate enhancement: model thiol glutathione
T2 construct: poly-histidine; made in house; host or cells: E. coli
Method in brief: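 His-tagged human Cdk2 (single surface cysteine C177), expressed in E. coli, or a model thiol at 5 μM in degassed phosphate buffer pH 8 was pre-treated with immobilized TCEP beads (2% v/v) before acrylamide addition. Fluorescence (ex/em 380/470 nm) was read after 1 h at room temperature, normalized to DMSO/thiol-only control and plotted versus time.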

Cdk2[C177A, F80C, K278C] = molecular target: T3, Cdk2[C177A, F80C, K278C] (Homo sapiens, UniProt P24941, C177A/F80C/K278C); experiment: Kinetic thiol consumption assay with mutant Cdk2 as model thiol; type: binding; parameters: unit not given here; conditions: 500 μM ligand, 5 μM thiol, phosphate buffer pH 8
T3 construct: poly-histidine; made in house; host or cells: E. coli
Method in brief: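 Model thiol: His-tagged human Cdk2 C177A/F80C/K278C (two engineered surface cysteines), E. coli-expressed, 5 μM in degassed phosphate buffer pH 8 with immobilized TCEP beads (2% v/v). Fluorescence (ex/em 380/470 nm) followed over time at room temperature, normalized to DMSO/thiol control. First-order decay fit gives rate constants.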

[2] = Kinetic thiol consumption assay with model thiol glutathione; type: physicochemical; parameters: Rate constant with glutathione (k(GSH)): unit not given here; conditions: for Rate constant with glutathione (k(GSH)): 500 μM ligand, 5 μM thiol, phosphate buffer pH 8; for Rate constant with Glutathione: Protein: Glutathione, cysteine position NA, in h-1
Method in brief: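 GSH 5 μM, degassed phosphate buffer pH 8, TCEP beads 2% v/v; acrylamide added; RT, 1 h; fluorescence ex/em 380/470 nm; normalized to DMSO/thiol control; k from first-order exponential decay fit.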

[3] = system: Cdk2 constructs (except Cdk(WT)); experiment: Average of several thiols (Cdk2 constructs except WT) as model thiol; type: binding, human; conditions: average over all Cdk2 constructs except Cdk2(WT)
Procedure: In Example 1 rate enhancements were calculated relative to the control thiol, glutathione.
As an example, the rate constant for ligand candidate EL1157 in reaction with all the Cdk2 constructs (except Cdk(WT)) were averaged and then compared to the rate constant with Cdk2(WT).

Cdk2(C177A, F80C) = molecular target: T4, Cdk2(C177A, F80C) (Homo sapiens, UniProt P24941, C177A/F80C); experiment: Kinetic thiol consumption assay with Cdk2 mutant F80C, incl. kobs versus concentration (Kd, k2); type: binding; parameters: key to Rate enhancement, Cdk2 F80C: Cdk2 rate constant divided by model-thiol rate constant; conditions: for Rate enhancement, Cdk2 F80C / Rate constant with Cdk2 F80C: additional mutation C177A; for Rate constant with Cdk2 F80C: Protein: Cdk2, cysteine position F80C, in h^-1
T4 construct: poly-histidine; made in house; host or cells: E. coli
Method in brief: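 His-tagged Cdk2(C177A/F80C) from E. coli or model thiol, 5 μM in degassed phosphate buffer pH 8 with TCEP beads, reacted with acrylamide ligands; fluorescence (ex/em 380/470 nm) normalized to DMSO control and fitted to first-order decay for kobs. Kd and k2 obtained from hyperbolic fit of kobs versus ligand concentration.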

Cdk2(S276C) (C177A) = molecular target: T5, Cdk2(S276C) (C177A) (Homo sapiens, UniProt P24941, C177A/S276C); experiment: Kinetic thiol consumption assay with Cdk2 mutant S276C; type: binding; parameters: key to Rate enhancement, Cdk2 S276C: rate constant with Cdk2 ÷ rate constant with model thiol (fold); conditions: for Rate enhancement, Cdk2 S276C / Rate constant with Cdk2 S276C: additional mutation C177A; for Rate constant with Cdk2 S276C: Protein: Cdk2, cysteine position S276C, in h^-1
T5 construct: poly-histidine; made in house; host or cells: E. coli
Method in brief: as §1

Cdk2(S181C) (C177A) = molecular target: T6, Cdk2(S181C) (C177A) (Homo sapiens, UniProt P24941, C177A/S181C); experiment: Kinetic thiol consumption assay with Cdk2 mutant S181C; type: binding; parameters: key to Rate enhancement, Cdk2 S181C: rate constant with Cdk2 ÷ rate constant with model thiol (fold); conditions: for Rate enhancement, Cdk2 S181C / Rate constant with Cdk2 S181C: additional mutation C177A; for Rate constant with Cdk2 S181C: Protein: Cdk2, cysteine position S181C, in h^-1
T6 construct: poly-histidine; made in house; host or cells: E. coli
Method in brief: as §1

Cdk2(R122C) (C177A) = molecular target: T7, Cdk2(R122C) (C177A) (Homo sapiens, UniProt P24941, C177A/R122C); experiment: Kinetic thiol consumption assay with Cdk2 mutant R122C; type: binding; parameters: key to Rate enhancement, Cdk2 R122C: rate constant with Cdk2 ÷ rate constant with model thiol (fold); conditions: for Rate enhancement, Cdk2 R122C / Rate constant with Cdk2 R122C: additional mutation C177A; for Rate constant with Cdk2 R122C: Protein: Cdk2, cysteine position R122C, in h-1
T7 construct: poly-histidine; made in house; host or cells: E. coli
Method in brief: as §1

Cdk2(T182C) (C177A) = molecular target: T8, Cdk2(T182C) (C177A) (Homo sapiens, UniProt P24941, C177A/T182C); experiment: Kinetic thiol consumption assay with Cdk2 mutant T182C; type: binding; parameters: key to Rate enhancement, Cdk2 T182C: rate constant with Cdk2 ÷ rate constant with model thiol (fold); conditions: for Rate enhancement, Cdk2 T182C / Rate constant with Cdk2 T182C: additional mutation C177A; for Rate constant with Cdk2 T182C: Protein: Cdk2, cysteine position T182C, in h^-1
T8 construct: poly-histidine; made in house; host or cells: E. coli
Method in brief: as §1

Cdk2(N272C) (C177A) = molecular target: T9, Cdk2(N272C) (C177A) (Homo sapiens, UniProt P24941, C177A/N272C); experiment: Kinetic thiol consumption assay with Cdk2 mutant N272C; type: binding; parameters: key to Rate enhancement, Cdk2 N272: rate constant with Cdk2 ÷ rate constant with model thiol (fold); conditions: for Rate enhancement, Cdk2 N272: Cdk2 N272, additional mutation C177A; for Rate constant with Cdk2 N272C: Protein: Cdk2, cysteine position N272C, additional mutation C177A, in h^-1
T9 construct: poly-histidine; made in house; host or cells: E. coli
Method in brief: as §1

Cdk2(F80C, C177A) [4] = molecular target: T10, Cdk2(F80C, C177A) (Homo sapiens, UniProt P24941, C177A/F80C); experiment: Kinase assay; type: biochemical; conditions: Cdk2(F80C, C177A) labelled with ligand
T10 construct: poly-histidine; made in house; host or cells: E. coli
Source text: Again, 1-Cdk2 refers to Cdk2(F80C, C177A) labelled with EL1071 (FIG. 10(c)). Finally, the EL1071-Cdk2(F80C, C177A) complex was crystallized and the structure determined by X-ray crystallography (FIG. 11). This confirms that the ligand binds to the cysteine residue at F80C and blocks the protein's active site leading to the observed inhibition.

Cdk2(F80C, C177A) [5] = molecular target: T10, Cdk2(F80C, C177A); experiment: Intact protein mass spectrometry of labelling; type: binding; conditions: after 2 hours of incubation
Source text: Mass spectrometry and X-ray crystallography were used to validate the binding of a hit ligand identified by the present method.
From the screen of Cdk2(F80C, C177A), we identified EL1071 as a hit molecule (rate enhancement relative to GSH=60.5).

SMILES	Rate enhancement, Cdk2 H71C (Cdk2(H71C) (C177A))	Rate constant with Cdk2 H71C (Cdk2(H71C) (C177A))	Rate constant with Cdk2 (k(Cdk2)) [1]	Rate enhancement, Cdk2 WT [1]	Rate constant with Cdk2 WT [1]	k(Cdk2)/k(Cdk2_mut) rate enhancement [1]	k(Cdk2)/k(GSH) rate enhancement [1]	Rate constant with Cdk2[C177A, F80C, K278C] (k(Cdk2_mut)) (Cdk2[C177A, F80C, K278C])	Rate constant with glutathione (k(GSH)) [2]	Rate constant with Glutathione [2]	Rate enhancement, Cdk2 F80C (Cdk2(C177A, F80C))	Rate constant with Cdk2 F80C (Cdk2(C177A, F80C))	Rate enhancement, Cdk2 S276C (Cdk2(S276C) (C177A))	Rate constant with Cdk2 S276C (Cdk2(S276C) (C177A))	Rate enhancement, Cdk2 S181C (Cdk2(S181C) (C177A))	Rate constant with Cdk2 S181C (Cdk2(S181C) (C177A))	Rate enhancement, Cdk2 R122C (Cdk2(R122C) (C177A))	Rate constant with Cdk2 R122C (Cdk2(R122C) (C177A))	Rate enhancement, Cdk2 T182C (Cdk2(T182C) (C177A))	Rate constant with Cdk2 T182C (Cdk2(T182C) (C177A))	further results
C=CC(=O)N1CCN(C(=O)OC(C)(C)C)c2ccccc21 [EL-1157]	0.3892	0.02618	0.2006	2.982	0.2006	0.6586	1.592	0.3046	0.126	0.06726	0.5847	0.03933	1.046	0.07038	0.2053	0.01381	0.07164	0.004819	2.337	0.1572	Rate constant k(Cdk2(H71C)) (Cdk2(H71C) (C177A)): 0.0261 h⁻¹; Rate constant k(Cdk2(WT)) [1]: 0.2006 h⁻¹; k(Cdk2(WT))/k(average) ([1]; average of multiple Cdk2 mutants as control thiol): 4.46; Rate constant k(average) [3]: 0.0449 h⁻¹; Rate constant k(Cdk2(F80C)) (Cdk2(C177A, F80C)): 0.0393 h⁻¹; Rate constant k(Cdk2(S276C)) (Cdk2(S276C) (C177A)): 0.0704 h⁻¹; Rate constant k(Cdk2(S181C)) (Cdk2(S181C) (C177A)): 0.0138 h⁻¹; Rate constant k(Cdk2(R122C)) (Cdk2(R122C) (C177A)): 0.0048 h⁻¹; Rate constant k(Cdk2(T182C)) (Cdk2(T182C) (C177A)): 0.1572 h⁻¹; Rate constant k(Cdk2(N272C)) (Cdk2(N272C) (C177A)): 0.0029 h⁻¹; Rate enhancement, Cdk2 N272 (Cdk2(N272C) (C177A)): 0.04255; Rate constant with Cdk2 N272C (Cdk2(N272C) (C177A)): 0.002862
C=CC(=O)N1CCCc2cc(C(=O)OC)ccc21 [EL-1071]	7.215	0.3666	0.433	8.522	0.433	1.341	8.5 and 8.576	0.323	0.051 and 0.05049	0.05081	60.48	3.073	1.09	0.05538	0.5036	0.02559	0.2848	0.01447	7.764	0.3945	hit classification, Example 1 ([1]; hits defined as kCdk2/kGSH>5.8 (3 standard deviations over the mean)): hit fragment; hit classification against Cdk2(F80C, C177A) (Cdk2(C177A, F80C)): hit molecule; rate enhancement relative to GSH (Cdk2(C177A, F80C); Cdk2(F80C, C177A) versus GSH): 60.5; inhibition of kinase activity (Cdk2(F80C, C177A) [4]): completely inhibited; modification of Cdk2(F80C, C177A) by intact protein mass spectrometry (Cdk2(F80C, C177A) [5]): completely monomodified; Rate enhancement, Cdk2 N272 (Cdk2(N272C) (C177A)): 0.6083; Rate constant with Cdk2 N272C (Cdk2(N272C) (C177A)): 0.03091
